Our source for the IC50 values is patent US10918645B2 (LIFEARC, priority 2016, dated 2021).

The target of one test is LRRK2 G2019S (Homo sapiens (Human), UniProt Q5S007, G2019S). The test is described as follows: Adapta Kinase Assay (LRRK2_IC50 assay). It is filed as biochemical. The following applies: inhibition of LRRK2 G2019S. The protocol:
In Adapta™ Kinase Assay (LRRK2_IC50 assay): the Kinase Reaction Buffer contained 5× Kinase Buffer S (Life Technologies, PV5213) and 2 mM DTT (Life Technologies, P2325).
The Adapta® universal kinase assay is a homogenous, fluorescent based immunoassay for the detection of ADP. In contrast to ATP depletion assays, the Adapta® assay is extremely sensitive to ADP formation such that a majority of the signal change occurs in the first 10-20% conversion of ATP to ADP. This makes the Adapta® universal kinase assay ideally suited for use with low activity kinases.
Prepare a 1× solution of kinase reaction buffer from the 5× Kinase Buffer S stock (listed above) by adding 2 ml of 5× stock to 8 ml of H2O to make 10 ml of 1× kinase reaction buffer. To this, add 20 μl of 1 M DTT.
Kinase reactions are performed in a 10 μl volume in low-volume 384-well plates. […] Other non—treated assay plates, while not tested, may also be suitable. The concentration of substrate in the assay is 100 μM, and the 1× kinase reaction buffer consists of 50 mM Tris-HCl pH8.5, 10 mM MgCl2, 1 mM EGTA, 0.01% Brij-35, and 2 mM DTT, plus any additional additives that may be required for a specific kinase. […] The plate is allowed to equilibrate at room temperature for at least 30 minutes before being read on a plate reader configured for Adapta™ TR-FRET.
The data presented in this document were generated using a BMG LABTECH PHERAstar plate reader using the appropriate filters and instrument settings for Adapta™. The Test Compounds are screened in 1% DMSO (final) in the well. For 8 point titrations, 5-fold serial dilutions are conducted from the starting concentration.
(§1) IC50 estimates were obtained using the software XLfit (IDBS Inc.).

In a further test the target is JAK2 (Homo sapiens (Human), UniProt O60674). The test is described as follows: LANCE Kinase Assay (JAK2_IC50 selectivity assay). It is filed as biochemical.
Description: In LANCE® Kinase Assay (JAK2_IC50 selectivity assay): JAK2 (Invitrogen, Cat. No PV4288), ATP (Sigma, Cat. No. A7699-1G), DMSO (Sigma, Cat. No. D2650), DTT (Sigma, Cat. No. 43815), LANCE Ultra ULight™-JAK-1 peptide (Perkin Elmer, Cat. No. TRF0121), LANCE Eu-W1024 Anti-phosphotyrosine (PT66) (Perkin Elmer, Cat. No. AD0069), LANCE™ Detection Buffer (Perkin Elmer, Cat. No. CR97-100), Tofacitinib (PharmaBlock Sciences(Nanjing), Inc, Cat. No. PBN2011586-01); Equipments: Envision (Perkin Elmer), Bravo (Agilent); Consumables: 384 well Intermediate plate (Greiner, Cat. No. 781280), 384 well assay plate (Perkin Elmer, Cat. No. 6007299),
The assay involves two steps, the enzymatic step and the detection step with HTRF reagents. Step 1: During the enzymatic step the substrate-biotin is incubated with the kinase of interest. ATP is added to start the reaction. Step 2: The detection reagent catches the phosphorylated substrate and the resulting TR-FRET is proportional to the phosphorylation level.
Compound Preparation: Dissolve the test compounds into 30 mM DMSO solution and put them in nitrogen hood at room temperature for long term storage; Dilute the 30 mM compound in DMSO with 3-fold factor, total 11 concentrations; Aspirate 1 μl compound and then dilute them in 25 folds with kinase buffer. Mix well and balance 30 minutes at room temperature.
Kinase Reaction: Transfer 2.5 μl compounds in kinase buffer (4×) into assay plate by Agilent Bravo. Spin the plate; Transfer 5 μl enzyme mixture into the assay plate by using Eppendorf electronic multi-channel pipette. Spin the plate; Incubate the assay plate for 20 minutes at room temperature (23° C.); Add 2.5 μl kinase buffer with ATP into the assay plate by using Multidrop. Spin and seal the plate; Incubate the assay plate for 90 minutes at room temperature (23° C.).
Stop Reaction: Transfer 10 μl detection reagent (2 nM LANCE Eu-W1024 Anti-phosphotyrosine) into the assay plate by using Eppendorf electronic multi-channel pipette. Spin and seal the plate; Incubate the assay plate at room temperature (23° C.) for 60 minutes.
Detection and Read: The excitation wavelength is 340 nm, the primary emission wavelength is 615 nm and the secondary emission wavelength is 665 nm (for Cryptate and Ulight, respectively). Read the plate with EnVision to get the readout of both wavelengths; Calculate the ratio of 665 nm/615 nm.
as §1
On the technique in general: In TR-FRET formats the signal depends on donor and acceptor labels being close together.

Sequence of JAK2 (O60674 whole entry): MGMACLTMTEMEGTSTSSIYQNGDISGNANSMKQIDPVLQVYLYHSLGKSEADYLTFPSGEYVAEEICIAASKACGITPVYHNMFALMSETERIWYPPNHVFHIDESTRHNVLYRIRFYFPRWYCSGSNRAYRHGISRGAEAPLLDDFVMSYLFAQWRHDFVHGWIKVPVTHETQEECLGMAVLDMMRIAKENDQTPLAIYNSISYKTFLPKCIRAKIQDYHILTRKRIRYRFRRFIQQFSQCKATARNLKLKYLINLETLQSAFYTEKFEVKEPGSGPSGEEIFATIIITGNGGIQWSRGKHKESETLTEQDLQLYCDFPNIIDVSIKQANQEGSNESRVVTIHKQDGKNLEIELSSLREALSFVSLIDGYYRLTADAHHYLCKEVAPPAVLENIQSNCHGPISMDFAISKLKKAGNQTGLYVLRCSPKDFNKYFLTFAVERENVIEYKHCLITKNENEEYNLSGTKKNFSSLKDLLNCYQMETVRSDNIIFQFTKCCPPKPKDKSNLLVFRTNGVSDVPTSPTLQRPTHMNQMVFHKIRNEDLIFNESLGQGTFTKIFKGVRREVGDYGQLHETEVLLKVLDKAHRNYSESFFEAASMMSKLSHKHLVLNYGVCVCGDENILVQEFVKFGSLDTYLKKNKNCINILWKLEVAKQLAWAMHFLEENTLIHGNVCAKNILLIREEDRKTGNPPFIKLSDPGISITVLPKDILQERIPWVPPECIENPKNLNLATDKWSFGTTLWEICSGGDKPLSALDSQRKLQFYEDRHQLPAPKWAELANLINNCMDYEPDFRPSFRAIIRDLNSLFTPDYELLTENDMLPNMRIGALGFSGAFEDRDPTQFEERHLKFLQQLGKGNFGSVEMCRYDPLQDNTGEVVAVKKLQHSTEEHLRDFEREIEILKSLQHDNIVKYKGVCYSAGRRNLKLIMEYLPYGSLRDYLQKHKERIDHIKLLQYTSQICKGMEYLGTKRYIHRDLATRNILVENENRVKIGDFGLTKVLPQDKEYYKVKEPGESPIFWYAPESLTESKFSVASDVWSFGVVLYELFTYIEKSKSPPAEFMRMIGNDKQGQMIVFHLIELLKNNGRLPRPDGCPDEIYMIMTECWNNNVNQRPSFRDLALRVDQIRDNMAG
Sequence of LRRK2 G2019S (Q5S007 970-2527 G2019S): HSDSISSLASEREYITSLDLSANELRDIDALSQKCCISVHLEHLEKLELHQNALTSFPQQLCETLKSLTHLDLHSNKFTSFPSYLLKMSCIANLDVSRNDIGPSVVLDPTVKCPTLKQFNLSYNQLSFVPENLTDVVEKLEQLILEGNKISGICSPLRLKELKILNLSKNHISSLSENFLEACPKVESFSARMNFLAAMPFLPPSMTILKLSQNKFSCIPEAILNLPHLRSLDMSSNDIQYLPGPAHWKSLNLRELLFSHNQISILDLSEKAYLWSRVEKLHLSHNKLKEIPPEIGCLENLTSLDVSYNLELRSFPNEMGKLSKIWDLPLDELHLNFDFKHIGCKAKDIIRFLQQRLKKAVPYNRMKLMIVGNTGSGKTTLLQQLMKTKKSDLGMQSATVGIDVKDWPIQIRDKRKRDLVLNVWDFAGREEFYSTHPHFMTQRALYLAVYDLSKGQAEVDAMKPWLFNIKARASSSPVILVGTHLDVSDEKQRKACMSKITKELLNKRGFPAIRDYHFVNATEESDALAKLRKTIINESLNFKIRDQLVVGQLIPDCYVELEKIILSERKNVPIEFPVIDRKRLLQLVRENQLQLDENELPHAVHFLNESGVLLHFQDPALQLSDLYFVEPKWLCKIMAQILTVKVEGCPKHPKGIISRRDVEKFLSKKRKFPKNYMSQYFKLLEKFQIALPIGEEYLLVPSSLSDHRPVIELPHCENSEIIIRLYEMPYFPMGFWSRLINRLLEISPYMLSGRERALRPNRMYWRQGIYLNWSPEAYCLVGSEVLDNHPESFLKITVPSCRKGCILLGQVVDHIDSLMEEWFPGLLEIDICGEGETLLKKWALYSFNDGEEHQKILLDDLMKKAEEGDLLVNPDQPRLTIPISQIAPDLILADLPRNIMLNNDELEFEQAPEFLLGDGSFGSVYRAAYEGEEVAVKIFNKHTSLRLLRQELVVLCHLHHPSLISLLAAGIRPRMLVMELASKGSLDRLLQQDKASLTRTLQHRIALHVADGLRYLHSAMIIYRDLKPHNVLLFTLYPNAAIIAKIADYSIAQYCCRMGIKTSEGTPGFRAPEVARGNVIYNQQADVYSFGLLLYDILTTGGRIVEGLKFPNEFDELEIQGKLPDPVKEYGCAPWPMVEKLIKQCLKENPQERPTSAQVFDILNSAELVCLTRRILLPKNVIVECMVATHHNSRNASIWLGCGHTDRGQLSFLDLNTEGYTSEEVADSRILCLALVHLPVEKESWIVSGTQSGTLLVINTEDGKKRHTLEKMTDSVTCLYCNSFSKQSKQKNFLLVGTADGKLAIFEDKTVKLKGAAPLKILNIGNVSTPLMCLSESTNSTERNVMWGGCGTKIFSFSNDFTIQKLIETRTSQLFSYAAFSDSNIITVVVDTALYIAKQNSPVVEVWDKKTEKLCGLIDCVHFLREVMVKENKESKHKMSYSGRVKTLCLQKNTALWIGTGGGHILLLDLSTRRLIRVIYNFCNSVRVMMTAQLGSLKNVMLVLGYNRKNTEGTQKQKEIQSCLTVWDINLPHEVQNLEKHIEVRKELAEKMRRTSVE

In the case of “2-(5,11-dihydro-4H-3,4,10,11-tetraazadibenzo[cd,h]azulen-4-yl)ethan-1-ol [Example 57]”, the half-maximal inhibitory concentration (IC50) against LRRK2 G2019S is 260 nM.

For the compound “4-(sec-butyl)-5,11-dihydro-4H-3,4,10,11-tetraazadibenzo[cd,h]azulene [Example 50]”, the midpoint of inhibition on LRRK2 G2019S, the IC50, lay at 120 nM.

Turning to “4-(tetrahydro-2H-pyran-4-yl)-8-(trifluoromethyl)-5,11-dihydro-4H-3,4,7,10,11-pentaazadibenzo[cd,h]azulene [Example 89]”, the concentration for half-maximal inhibition (IC50) on JAK2 turned out to be 23000 nM; against LRRK2 G2019S, 49 nM.

Compound “4-cyclobutyl-4,11-dihydro-5H-3,4,10,11-tetraazadibenzo[cd,h]azulen-5-one [Example 37]” registered a concentration for half-maximal inhibition (IC50) on LRRK2 G2019S of 20 nM.

Take “4-cyclobutyl-5,11-dihydro-4H-3,4,10,11-tetraazadibenzo[cd,h]azulene [Example 51]”: the IC50 was found to be 580 nM on JAK2 and 39 nM against LRRK2 G2019S.

At LRRK2 G2019S, “4-cyclopropyl-4,11-dihydro-5H-3,4,10,11-tetraazadibenzo[cd,h]azulen-5-one [Example 33]” displayed an IC50 of 30 nM.

For “4-cyclopropyl-5,11-dihydro-4H-3,4,10,11-tetraazadibenzo[cd,h]azulene [Example 47]”, the concentration for half-maximal inhibition (IC50) against JAK2 turned out to be 2200 nM; at LRRK2 G2019S, 54 nM.

The compound “4-ethyl-4,11-dihydro-5H-3,4,10,11-tetraazadibenzo[cd,h]azulen-5-one [Example 32]” displayed a half-inhibitory concentration (IC50) at LRRK2 G2019S of 34 nM.

Turning to “4-ethyl-5,11-dihydro-4H-3,4,10,11-tetraazadibenzo[cd,h]azulene [Example 46]”, the results for the concentration for half-maximal inhibition (IC50) at JAK2 and against LRRK2 G2019S were 1900 nM and 49 nM, respectively.

For the compound “4-isobutyl-5,11-dihydro-4H-3,4,10,11-tetraazadibenzo[cd,h]azulene [Example 49]”, the half-inhibitory concentration (IC50) against LRRK2 G2019S was determined as 67 nM.

“4-isopropyl-4,11-dihydro-5H-3,4,10,11-tetraazadibenzo[cd,h]azulen-5-one [Example 34]” displayed an IC50 on LRRK2 G2019S of 41 nM.

As for “4-isopropyl-4,11-dihydro-5H-3,4,10,11-tetraazadibenzo[cd,h]azulen-5-one [Example 35]”, 75 nM corresponded to half-maximal inhibition on LRRK2 G2019S (IC50).

As for “4-isopropyl-5,11-dihydro-4H-3,4,10,11-tetraazadibenzo[cd,h]azulene [Example 48]”, the IC50 amounted to 550 nM on JAK2 and 68 nM against LRRK2 G2019S.

Regarding `CN1CCCc2n[nH]c3ccnc1c23` [Example 16, 6-methyl-6,7,8,9-tetrahydro-2H-1,2,5,6-tetraazabenzo[cd]azulene], 3000 nM corresponded to half-maximal inhibition against LRRK2 G2019S (IC50).

As to `CC(C)N1CCCc2n[nH]c3ccnc1c23` [Example 19, 6-isopropyl-6,7,8,9-tetrahydro-2H-1,2,5,6-tetraazabenzo[cd]azulene], the IC50 was found to be 3100 nM on JAK2 and 230 nM against LRRK2 G2019S.

`CC(C)CN1CCCc2n[nH]c3ccnc1c23` [Example 20, 6-isobutyl-6,7,8,9-tetrahydro-2H-1,2,5,6-tetraazabenzo[cd]azulene] had a half-inhibitory concentration (IC50) at LRRK2 G2019S of 450 nM.

For `CN1CCC(N2CCCc3n[nH]c4ccnc2c34)CC1` [Example 26, 6-(1-methylpiperidin-4-yl)-6,7,8,9-tetrahydro-2H-1,2,5,6-tetraazabenzo[cd]azulene], the half-inhibitory concentration (IC50) against LRRK2 G2019S stood at 91 nM.

`OCCN1CCCc2n[nH]c3ccnc1c23` [Example 28, 2-(2,7,8,9-tetrahydro-6H-1,2,5,6-tetraazabenzo[cd]azulen-6-yl)ethan-1-ol] showed a half-maximal inhibitory concentration (IC50) at LRRK2 G2019S of 570 nM.

In turn, `CC1Cc2n[nH]c3ccnc(c23)N(C2CCOCC2)C1` (centres unmarked) [Example 30, 8-methyl-6-(tetrahydro-2H-pyran-4-yl)-6,7,8,9-tetrahydro-2H-1,2,5,6-tetraazabenzo[cd]azulene] displayed an IC50 at LRRK2 G2019S of 250 nM.

Turning to `CC(C)N1CCC(N2C(=O)c3ccccc3-c3n[nH]c4ccnc2c34)CC1` [Example 42], at LRRK2 G2019S, the IC50 is 31 nM.

With `CN1Cc2ccccc2-c2n[nH]c3ccnc1c23` [Example 45, 4-methyl-5,11-dihydro-4H-3,4,10,11-tetraazadibenzo[cd,h]azulene], the IC50 was determined as 2100 nM against JAK2 and 71 nM against LRRK2 G2019S.

Consider `c1ccc2c(c1)CN(C1CCCC1)c1nccc3[nH]nc-2c13` [Example 52], for which the IC50 at LRRK2 G2019S was found to be 33 nM.

`c1ccc(N2Cc3ccccc3-c3n[nH]c4ccnc2c34)cc1` [Example 53] showed an IC50 on LRRK2 G2019S of 33 nM.

For `CC(C)N1CCC(N2Cc3ccccc3-c3n[nH]c4ccnc2c34)CC1` [Example 56], the half-maximal inhibitory concentration (IC50) was 4800 nM against JAK2 and 58 nM against LRRK2 G2019S.

Compound `O=C1c2n[nH]cc2-c2n[nH]c3ccnc(c23)N1C1CCOCC1` [Example 65, 9-(tetrahydro-2H-pyran-4-yl)-5,9-dihydro-1,2,4,5,8,9-hexaazabenzo[cd]cyclopenta[h]azulen-10(2H)-one] gave an IC50 against LRRK2 G2019S of 4 nM.

Consider `Cn1cc2c(n1)C(=O)N(C1CCOCC1)c1nccc3[nH]nc-2c13` [Example 66, 2-methyl-9-(tetrahydro-2H-pyran-4-yl)-5,9-dihydro-1,2,4,5,8,9-hexaazabenzo[cd]cyclopenta[h]azulen-10(2H)-one], for which the IC50 at LRRK2 G2019S was determined as 26 nM.

On to `Cn1ncc2c1C(=O)N(C1CCOCC1)c1nccc3[nH]nc-2c13` [Example 67, 1-methyl-9-(tetrahydro-2H-pyran-4-yl)-5,9-dihydro-1,2,4,5,8,9-hexaazabenzo[cd]cyclopenta[h]azulen-10(1H)-one], for which inhibition at LRRK2 G2019S was half-maximal at 7 nM (IC50).

At LRRK2 G2019S, `Cn1cc2c(n1)CN(C1CCOCC1)c1nccc3[nH]nc-2c13` [Example 70, 2-methyl-9-(tetrahydro-2H-pyran-4-yl)-2,5,9,10-tetrahydro-1,2,4,5,8,9-hexaazabenzo[cd]cyclopenta[h]azulene] came in with an IC50 of 23 nM.

On to `CCn1cc2c(n1)CN(C1CCOCC1)c1nccc3[nH]nc-2c13` [Example 72, 2-ethyl-9-(tetrahydro-2H-pyran-4-yl)-2,5,9,10-tetrahydro-1,2,4,5,8,9-hexaazabenzo[cd]cyclopenta[h]azulene], for which the IC50 at JAK2 was 660 nM; at LRRK2 G2019S it was 15 nM.

Regarding `CC(C)n1cc2c(n1)CN(C1CCOCC1)c1nccc3[nH]nc-2c13` [Example 74, 2-isopropyl-9-(tetrahydro-2H-pyran-4-yl)-2,5,9,10-tetrahydro-1,2,4,5,8,9-hexaazabenzo[cd]cyclopenta[h]azulene], the half-inhibitory concentration (IC50) against JAK2 amounted to 2400 nM; against LRRK2 G2019S, 50 nM.

Consider `CC(C)n1cc2c(n1)CN(C1CCN(C)CC1)c1nccc3[nH]nc-2c13` [Example 81, 2-isopropyl-9-(1-methylpiperidin-4-yl)-2,5,9,10-tetrahydro-1,2,4,5,8,9-hexaazabenzo[cd]cyclopenta[h]azulene], for which the IC50 on JAK2 was 4600 nM; against LRRK2 G2019S, 40 nM.

In turn, `CC(C)N1CCC(N2Cc3nn(C)cc3-c3n[nH]c4ccnc2c34)CC1` [Example 82, 9-(1-isopropylpiperidin-4-yl)-2-methyl-2,5,9,10-tetrahydro-1,2,4,5,8,9-hexaazabenzo[cd]cyclopenta[h]azulene] displayed a 50% inhibitory concentration (IC50) against LRRK2 G2019S of 39 nM.

Regarding `CCN1CCN(C2CCOCC2)c2nccc3[nH]nc1c23` [Example 94, 9-ethyl-6-(tetrahydro-2H-pyran-4-yl)-6,7,8,9-tetrahydro-2H-1,2,5,6,9-pentaazabenzo[cd]azulene], at LRRK2 G2019S, the IC50 was found to be 820 nM.

One may read the IC50 as the concentration that inhibits the measured activity by half. A high value points to weaker potency.
